Reference: ChEMBL document CHEMBL1201862, “PubChem BioAssay data set” (2004)
Active and inactive are the calls of the source.

What was measured:
[1] = biological target: T1, Alkaline phosphatase, tissue-nonspecific isozyme (Homo sapiens, UniProt P05186); assay: TNAP enzyme inhibition by screening hits, dose response, selectivity assay for mouse IAP inhibitor project, biochemical, human TNAP, uHTS hits (AID 488906); assay type: functional
T1 sequence (P05186 whole entry): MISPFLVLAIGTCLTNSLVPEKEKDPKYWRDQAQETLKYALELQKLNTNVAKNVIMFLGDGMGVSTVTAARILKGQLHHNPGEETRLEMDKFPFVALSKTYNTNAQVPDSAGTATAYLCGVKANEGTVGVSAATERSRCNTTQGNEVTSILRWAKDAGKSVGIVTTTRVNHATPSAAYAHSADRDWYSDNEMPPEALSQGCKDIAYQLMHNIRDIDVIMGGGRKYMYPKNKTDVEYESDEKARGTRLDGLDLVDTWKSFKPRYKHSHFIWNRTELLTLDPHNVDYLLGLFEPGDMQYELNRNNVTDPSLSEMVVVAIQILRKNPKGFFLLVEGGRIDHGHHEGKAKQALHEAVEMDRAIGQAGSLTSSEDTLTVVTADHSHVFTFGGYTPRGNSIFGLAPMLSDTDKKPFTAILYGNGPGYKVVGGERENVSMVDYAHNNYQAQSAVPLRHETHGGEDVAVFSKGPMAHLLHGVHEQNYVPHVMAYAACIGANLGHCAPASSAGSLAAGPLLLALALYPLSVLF

Exodeoxyribonuclease V = Exodeoxyribonuclease V (Escherichia coli (strain K12), UniProt P04993+P07648+P08394); assay: E. coli RecBCD inhibitors, dose response, counter-screen for AddAB inhibitor project, absorbance, V66 E. coli, mutant T4 phage (AID 492957); assay type: functional, cell-based, Escherichia coli str. K-12 substr. MG1655
Nonstructural protein 1 = Nonstructural protein 1 (Influenza A virus, UniProt Q194T2); assay type: functional, Influenza A virus (A/California/07/2009(H1N1))
[2] = RKO cell viability reduction, dose response, CellTiter-Glo luminescence (AID 1117322); assay type: functional
[3] = CellTiter-Glo luminescent dose response of DLD-1 viability loss (AID 1117352); assay type: functional
[4] = system: Streptococcus sp. 'group A'; assay: growth inhibition of control SK(-) GAS strain, dose response, counter-screen for streptokinase expression inhibitor project, luminescence, kanamycin, BacTiterGlo, confirmation (AID 1900); assay type: functional, organism-based
[5] = biological target: FAD-linked sulfhydryl oxidase ALR (Homo sapiens, UniProt P55789); assay: inhibitors of human ALR sulfhydryl oxidase, dose response, biochemical, H2O2 detection, luminescence, cherry-pick (AID 493248)
[6] = Concentration-dependent survival of SW480 colon cancer line, luminescence detection with CellTiter-Glo, half-maximal inhibitory concentration (AID 1117338); assay type: functional
[7] = biological target: Intestinal-type alkaline phosphatase (Mus musculus, UniProt P24822); assay: PubChem AID 488785; assay type: functional
[8] = HeLa 4N DNA content increase, dose response, cell-based, IC50 (AID 1117351); assay type: functional
[9] = cytotoxicity toward HCT116 cells – cell-based, CellTiter-Glo luminescence, IC50, dose response (AID 1117332); assay type: functional; settings: HCT-116
[10] = Counterscreen for AddAB inhibitors: absorbance-based bacterial cell-based high throughput dose response assay for inhibitors of bacterial viability. [Related pubchem assays (depositor defined):AID435030, AID449728, AID449731, AID488942, AID488955, AID488956]; assay type: functional
[11] = cytotoxicity toward Colo320 cells – cell-based, CellTiter-Glo luminescence, IC50, dose response (AID 1117334); assay type: functional; settings: COLO 320
[12] = cytotoxicity toward HT-29 cells – cell-based, CellTiter-Glo luminescence, IC50, dose response (AID 1117330); assay type: functional
[13] = HeLa 2N DNA content increase, dose response, cell-based, IC50 (AID 1117349); assay type: functional
[14] = HCT116 cell viability decrease, GSK3B pretreatment – CellTiter-Glo, IC50, dose response (AID 1117339); assay type: functional; settings: HCT-116
[15] = SNU-C1 cell viability reduction, dose response, CellTiter-Glo luminescence (AID 1117323); assay type: functional, cell-based
[16] = Luminescence Cell-Based Dose Confirmation HTS to Identify Inhibitors of Polyadenylation.; assay type: functional
[17] = biological target: Intestinal-type alkaline phosphatase (Homo sapiens, UniProt P09923); assay: inhibition of human intestinal alkaline phosphatase – biochemical, dose response (AID 488876); assay type: functional
Streptococcus = assay: Group A Streptococcus viability loss, dose response, counter-screen for streptokinase expression inhibitor project, luminescence, BacTiterGlo (AID 1915); assay type: functional, organism-based;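 also: potency for reduction of bacterial viability or growth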
[18] = biological target: T2, Apoptotic protease-activating factor 1 (Homo sapiens, UniProt O14727); assay type: functional
T2 sequence (O14727 whole entry): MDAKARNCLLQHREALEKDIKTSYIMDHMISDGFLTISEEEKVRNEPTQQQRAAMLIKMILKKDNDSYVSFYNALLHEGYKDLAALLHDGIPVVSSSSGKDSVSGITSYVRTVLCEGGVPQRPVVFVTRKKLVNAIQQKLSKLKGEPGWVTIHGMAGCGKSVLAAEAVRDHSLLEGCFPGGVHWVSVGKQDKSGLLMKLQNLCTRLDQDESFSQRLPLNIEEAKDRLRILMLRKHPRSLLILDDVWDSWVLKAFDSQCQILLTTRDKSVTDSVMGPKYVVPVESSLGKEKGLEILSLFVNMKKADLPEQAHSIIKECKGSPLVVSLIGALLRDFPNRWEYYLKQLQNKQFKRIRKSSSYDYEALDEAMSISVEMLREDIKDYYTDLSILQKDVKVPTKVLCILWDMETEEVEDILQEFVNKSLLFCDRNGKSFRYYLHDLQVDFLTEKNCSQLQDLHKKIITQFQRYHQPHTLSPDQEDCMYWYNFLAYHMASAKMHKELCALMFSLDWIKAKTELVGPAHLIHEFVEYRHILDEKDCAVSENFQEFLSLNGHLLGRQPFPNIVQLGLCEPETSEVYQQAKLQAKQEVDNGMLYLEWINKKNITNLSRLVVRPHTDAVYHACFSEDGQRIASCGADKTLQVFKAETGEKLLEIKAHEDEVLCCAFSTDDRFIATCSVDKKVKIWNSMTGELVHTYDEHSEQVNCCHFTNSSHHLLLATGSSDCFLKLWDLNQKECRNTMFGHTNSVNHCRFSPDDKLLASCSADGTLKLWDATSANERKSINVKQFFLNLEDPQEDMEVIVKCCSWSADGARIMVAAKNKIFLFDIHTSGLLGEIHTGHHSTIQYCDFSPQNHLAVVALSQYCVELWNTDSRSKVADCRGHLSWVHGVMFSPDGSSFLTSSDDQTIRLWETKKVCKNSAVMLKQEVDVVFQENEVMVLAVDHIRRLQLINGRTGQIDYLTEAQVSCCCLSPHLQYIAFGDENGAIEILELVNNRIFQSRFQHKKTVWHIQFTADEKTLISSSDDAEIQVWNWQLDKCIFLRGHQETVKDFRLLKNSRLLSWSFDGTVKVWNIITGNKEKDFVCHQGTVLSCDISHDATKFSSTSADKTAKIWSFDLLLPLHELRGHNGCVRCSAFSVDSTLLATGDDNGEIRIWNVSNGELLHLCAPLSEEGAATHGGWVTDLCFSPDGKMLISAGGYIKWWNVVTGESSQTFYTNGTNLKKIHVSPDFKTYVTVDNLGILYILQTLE

[19] = biological target: T3, Ubiquitin-conjugating enzyme E2 N (Homo sapiens, UniProt P61088); assay type: functional;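 also: Dose-response confirmation in a TR-FRET assay detecting UBC13-driven polyubiquitin chain formation, inhibition measured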
T3 sequence (P61088 whole entry): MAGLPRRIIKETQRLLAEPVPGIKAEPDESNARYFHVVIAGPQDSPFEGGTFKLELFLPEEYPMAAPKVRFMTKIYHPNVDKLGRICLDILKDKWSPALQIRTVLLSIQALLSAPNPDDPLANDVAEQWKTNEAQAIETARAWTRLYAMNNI

[20] = biological target: E3 ubiquitin-protein ligase Mdm2 (Homo sapiens, UniProt Q00987); assay: enhancers of MDM2-luciferase reporter signal, concentration-effect titration, project on inhibitors of MDM2 ubiquitin ligase, cellular assay, luminescent readout, 384-well plate format (AID 1394); assay type: functional;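 also: MDM2 E3 inhibitors raise luminescence so EC50 is for signal enhancement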
[21] = biological target: T4, Heat shock factor protein 1 (Mus musculus, UniProt P38532); assay: HSF1 potentiators in luciferase reporter cells, confirmation, cell-based, NIH3T3, luminescence, dose retest (AID 435004); assay type: functional;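 also: stress induced by proteasome inhibitor MG132 added 30 min after compound; luciferase reporter driven by HSF1 response element in NIH3T3 cells; actives raise luminescence as potentiators of the MG132 stress response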
T4 sequence (P38532 whole entry): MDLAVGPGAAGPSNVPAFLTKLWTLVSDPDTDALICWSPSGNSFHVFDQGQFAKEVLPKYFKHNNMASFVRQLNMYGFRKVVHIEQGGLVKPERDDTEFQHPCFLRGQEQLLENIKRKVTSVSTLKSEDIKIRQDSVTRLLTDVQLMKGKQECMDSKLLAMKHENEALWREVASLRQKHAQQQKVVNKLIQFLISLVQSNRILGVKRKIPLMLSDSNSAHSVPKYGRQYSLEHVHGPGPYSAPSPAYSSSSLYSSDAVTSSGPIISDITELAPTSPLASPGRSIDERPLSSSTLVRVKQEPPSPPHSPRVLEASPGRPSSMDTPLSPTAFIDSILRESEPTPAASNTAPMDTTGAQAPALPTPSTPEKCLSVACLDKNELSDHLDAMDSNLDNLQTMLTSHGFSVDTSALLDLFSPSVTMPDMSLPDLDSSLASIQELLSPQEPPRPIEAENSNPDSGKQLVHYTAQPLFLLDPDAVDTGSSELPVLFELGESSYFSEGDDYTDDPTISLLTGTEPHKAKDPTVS

[22] = biological target: T5, Kappa-type opioid receptor (Homo sapiens, UniProt P41145); assay type: functional
Beta-galactosidase [23] = biological target: T6, Beta-galactosidase (Escherichia coli, UniProt Q8VNN2); assay type: functional
Beta-galactosidase [24] = biological target: T6, Beta-galactosidase; assay: PubChem AID 485352; assay type: functional
[25] = biological target: T7, Delta-type opioid receptor (Homo sapiens, UniProt P41143); assay: HTS Image-Based Screen for Antagonists of the DOR Receptor. [Related pubchem assays (depositor defined):AID1777, AID1785, AID1786, AID2133]; assay type: functional
[26] = biological target: T8, Type-1 angiotensin II receptor (Homo sapiens, UniProt P30556); assay: AT1 receptor antagonists, dose response, selectivity assay for APJ receptor antagonist project, cell-based, uHTS hits (AID 463214); assay type: functional;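 also: antagonist potency against angiotensin II stimulated AT1 response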
T8 sequence (P30556 whole entry): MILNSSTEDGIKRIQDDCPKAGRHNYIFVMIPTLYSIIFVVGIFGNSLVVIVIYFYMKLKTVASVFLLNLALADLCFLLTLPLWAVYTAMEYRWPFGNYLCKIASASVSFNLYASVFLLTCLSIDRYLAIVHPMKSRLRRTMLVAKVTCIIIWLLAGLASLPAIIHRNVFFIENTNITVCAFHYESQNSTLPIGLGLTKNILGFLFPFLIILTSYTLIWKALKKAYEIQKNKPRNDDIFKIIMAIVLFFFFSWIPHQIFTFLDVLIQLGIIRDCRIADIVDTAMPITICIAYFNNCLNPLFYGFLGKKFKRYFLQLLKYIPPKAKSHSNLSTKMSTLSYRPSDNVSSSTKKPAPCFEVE

[27] = cytotoxicity toward NIH3T3 fibroblasts, dose response, counter-screen, cell-based, ATP luminescence, mouse fibroblasts (AID 2010); assay type: functional;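 also: cells exposed to compound for about 90 hours before reading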
[28] = AlphaScreen signal interference compounds, dose response, artefact control for ARNT-TACC3 interaction inhibitor project, biochemical, luminescence, cherry-pick (AID 651705); assay type: functional;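 also: AlphaScreen bead proximity signal that flags compounds interfering with the detection technology; potency reflects signal decrease which marks the compound as an assay artifact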
[29] = biological target: T5, Kappa-type opioid receptor; assay type: functional; remark: listed apart in the source
Mu-type opioid receptor = Mu-type opioid receptor (Homo sapiens, UniProt P35372); assay: HTS Image-Based Screen for Agonists of the MOR Receptor. [Related pubchem assays (depositor defined):AID1777, AID1785, AID1786, AID2133]; assay type: functional;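 also: imaging of beta-arrestin GFP recruitment into spots after receptor activation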
[30] = inhibitors of intracellular T. cruzi replication, confirmation, NIH3T3 host cells, beta-gal luminescence (AID 2044); assay type: functional, cell-based;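 also: intracellular parasites grown in NIH/3T3 mouse fibroblasts as host cells; luminescent beta-galactosidase reporter signal from transgenic T. cruzi replicating inside host cells; inhibitors lower the luminescence signal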
[31] = biological target: T7, Delta-type opioid receptor; assay: HTS Image-Based Screen for Agonists of the DOR Receptor. [Related pubchem assays (depositor defined):AID1777, AID1786, AID2133]; assay type: functional

Chain of Nonstructural protein 1 (Q194T2 whole entry): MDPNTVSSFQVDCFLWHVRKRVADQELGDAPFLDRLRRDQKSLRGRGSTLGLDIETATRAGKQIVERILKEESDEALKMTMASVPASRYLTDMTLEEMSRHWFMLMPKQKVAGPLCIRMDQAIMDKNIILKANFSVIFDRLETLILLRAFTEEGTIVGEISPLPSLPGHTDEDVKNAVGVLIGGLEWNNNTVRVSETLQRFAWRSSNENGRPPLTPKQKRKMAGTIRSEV
T7 sequence (P41143 whole entry): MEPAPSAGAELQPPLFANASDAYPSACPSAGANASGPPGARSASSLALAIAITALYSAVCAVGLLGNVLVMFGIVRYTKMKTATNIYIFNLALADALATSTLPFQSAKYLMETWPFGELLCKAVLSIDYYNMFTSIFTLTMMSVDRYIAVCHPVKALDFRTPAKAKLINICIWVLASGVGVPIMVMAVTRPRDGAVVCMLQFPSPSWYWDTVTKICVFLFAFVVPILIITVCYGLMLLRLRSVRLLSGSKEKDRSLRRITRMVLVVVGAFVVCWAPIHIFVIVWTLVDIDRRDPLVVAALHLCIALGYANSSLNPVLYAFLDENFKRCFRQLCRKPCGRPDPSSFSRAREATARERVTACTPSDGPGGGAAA
T6 sequence (Q8VNN2 whole entry): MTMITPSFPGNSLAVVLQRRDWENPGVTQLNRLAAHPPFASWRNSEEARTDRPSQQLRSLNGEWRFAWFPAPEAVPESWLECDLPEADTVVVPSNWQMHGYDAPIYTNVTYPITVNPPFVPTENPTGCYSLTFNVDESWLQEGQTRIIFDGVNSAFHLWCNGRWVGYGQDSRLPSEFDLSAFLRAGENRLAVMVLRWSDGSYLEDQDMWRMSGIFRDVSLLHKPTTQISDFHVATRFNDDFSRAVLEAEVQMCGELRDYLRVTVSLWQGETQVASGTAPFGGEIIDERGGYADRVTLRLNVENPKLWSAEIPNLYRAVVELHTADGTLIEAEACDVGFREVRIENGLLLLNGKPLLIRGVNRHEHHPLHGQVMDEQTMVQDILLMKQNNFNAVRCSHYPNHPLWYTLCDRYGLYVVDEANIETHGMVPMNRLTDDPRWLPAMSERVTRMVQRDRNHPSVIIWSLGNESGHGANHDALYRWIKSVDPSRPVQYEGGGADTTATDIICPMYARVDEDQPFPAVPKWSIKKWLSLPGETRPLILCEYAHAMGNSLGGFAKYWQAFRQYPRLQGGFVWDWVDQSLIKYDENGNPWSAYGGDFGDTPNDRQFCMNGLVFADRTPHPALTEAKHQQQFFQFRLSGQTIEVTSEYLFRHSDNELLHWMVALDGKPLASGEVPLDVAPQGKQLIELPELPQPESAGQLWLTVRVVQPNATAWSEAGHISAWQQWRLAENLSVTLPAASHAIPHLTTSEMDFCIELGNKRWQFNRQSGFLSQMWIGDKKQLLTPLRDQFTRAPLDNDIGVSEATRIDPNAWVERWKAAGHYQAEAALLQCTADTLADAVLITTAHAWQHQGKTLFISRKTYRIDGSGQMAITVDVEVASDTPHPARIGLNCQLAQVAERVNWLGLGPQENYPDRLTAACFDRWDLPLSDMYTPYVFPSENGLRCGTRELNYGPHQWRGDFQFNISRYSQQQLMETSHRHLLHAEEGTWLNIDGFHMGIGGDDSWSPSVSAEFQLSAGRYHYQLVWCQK
T5 sequence (P41145 whole entry): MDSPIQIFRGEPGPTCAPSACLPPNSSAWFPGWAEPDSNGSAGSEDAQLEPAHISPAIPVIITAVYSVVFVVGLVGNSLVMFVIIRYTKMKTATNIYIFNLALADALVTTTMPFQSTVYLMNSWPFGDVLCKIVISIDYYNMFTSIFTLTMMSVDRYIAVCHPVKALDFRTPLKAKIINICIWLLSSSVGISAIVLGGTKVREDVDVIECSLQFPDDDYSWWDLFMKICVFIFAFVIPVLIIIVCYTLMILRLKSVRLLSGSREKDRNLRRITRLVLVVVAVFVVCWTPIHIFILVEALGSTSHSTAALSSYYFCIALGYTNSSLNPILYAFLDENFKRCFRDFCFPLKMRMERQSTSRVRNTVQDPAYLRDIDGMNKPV
Chain of FAD-linked sulfhydryl oxidase ALR (P55789 whole entry): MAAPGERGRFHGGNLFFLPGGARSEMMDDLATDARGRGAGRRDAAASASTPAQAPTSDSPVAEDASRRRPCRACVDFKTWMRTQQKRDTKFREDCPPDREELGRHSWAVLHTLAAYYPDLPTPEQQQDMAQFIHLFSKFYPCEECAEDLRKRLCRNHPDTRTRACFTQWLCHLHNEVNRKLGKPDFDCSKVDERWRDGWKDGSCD
Chain of Mu-type opioid receptor (P35372 whole entry): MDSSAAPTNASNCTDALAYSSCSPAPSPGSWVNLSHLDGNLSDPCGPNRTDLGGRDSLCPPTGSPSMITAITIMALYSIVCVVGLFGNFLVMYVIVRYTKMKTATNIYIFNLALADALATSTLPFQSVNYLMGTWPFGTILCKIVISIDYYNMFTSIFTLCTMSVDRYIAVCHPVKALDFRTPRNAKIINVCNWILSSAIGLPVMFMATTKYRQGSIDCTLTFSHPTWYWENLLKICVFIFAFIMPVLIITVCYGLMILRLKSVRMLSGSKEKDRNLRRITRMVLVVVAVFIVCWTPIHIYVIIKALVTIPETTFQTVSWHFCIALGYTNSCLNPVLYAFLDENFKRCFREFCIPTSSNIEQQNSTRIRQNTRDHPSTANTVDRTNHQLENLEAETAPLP
Chain of Intestinal-type alkaline phosphatase (Mus musculus, UniProt P24822) (P24822 whole entry): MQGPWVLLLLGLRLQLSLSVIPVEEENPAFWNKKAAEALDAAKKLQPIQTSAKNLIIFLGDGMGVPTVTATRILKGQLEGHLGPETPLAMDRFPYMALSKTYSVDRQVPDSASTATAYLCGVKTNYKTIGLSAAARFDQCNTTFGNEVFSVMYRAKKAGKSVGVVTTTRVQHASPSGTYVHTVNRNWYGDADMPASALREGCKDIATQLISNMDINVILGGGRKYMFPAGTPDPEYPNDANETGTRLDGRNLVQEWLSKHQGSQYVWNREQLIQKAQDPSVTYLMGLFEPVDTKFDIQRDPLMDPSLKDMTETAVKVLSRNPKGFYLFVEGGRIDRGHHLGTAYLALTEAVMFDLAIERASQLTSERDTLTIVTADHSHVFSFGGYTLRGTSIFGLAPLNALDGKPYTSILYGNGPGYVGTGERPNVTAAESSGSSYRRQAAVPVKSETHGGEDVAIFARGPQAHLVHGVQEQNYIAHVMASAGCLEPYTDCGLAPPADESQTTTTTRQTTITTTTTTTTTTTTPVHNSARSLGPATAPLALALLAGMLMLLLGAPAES
Chain of Intestinal-type alkaline phosphatase (Homo sapiens, UniProt P09923) (P09923 whole entry): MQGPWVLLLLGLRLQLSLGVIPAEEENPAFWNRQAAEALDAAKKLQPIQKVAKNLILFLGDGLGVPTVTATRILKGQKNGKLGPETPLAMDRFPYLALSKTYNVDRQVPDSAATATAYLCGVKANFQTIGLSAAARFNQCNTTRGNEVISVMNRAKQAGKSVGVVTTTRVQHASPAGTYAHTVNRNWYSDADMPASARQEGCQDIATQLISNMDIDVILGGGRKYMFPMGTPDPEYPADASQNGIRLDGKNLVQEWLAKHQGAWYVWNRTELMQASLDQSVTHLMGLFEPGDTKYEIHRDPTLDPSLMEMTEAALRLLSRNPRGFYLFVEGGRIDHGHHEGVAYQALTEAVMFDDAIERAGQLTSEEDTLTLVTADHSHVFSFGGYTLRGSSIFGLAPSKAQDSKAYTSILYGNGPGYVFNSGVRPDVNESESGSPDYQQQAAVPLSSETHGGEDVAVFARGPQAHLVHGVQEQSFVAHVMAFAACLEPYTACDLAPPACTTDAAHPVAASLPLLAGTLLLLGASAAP
Chain of E3 ubiquitin-protein ligase Mdm2 (Q00987 whole entry): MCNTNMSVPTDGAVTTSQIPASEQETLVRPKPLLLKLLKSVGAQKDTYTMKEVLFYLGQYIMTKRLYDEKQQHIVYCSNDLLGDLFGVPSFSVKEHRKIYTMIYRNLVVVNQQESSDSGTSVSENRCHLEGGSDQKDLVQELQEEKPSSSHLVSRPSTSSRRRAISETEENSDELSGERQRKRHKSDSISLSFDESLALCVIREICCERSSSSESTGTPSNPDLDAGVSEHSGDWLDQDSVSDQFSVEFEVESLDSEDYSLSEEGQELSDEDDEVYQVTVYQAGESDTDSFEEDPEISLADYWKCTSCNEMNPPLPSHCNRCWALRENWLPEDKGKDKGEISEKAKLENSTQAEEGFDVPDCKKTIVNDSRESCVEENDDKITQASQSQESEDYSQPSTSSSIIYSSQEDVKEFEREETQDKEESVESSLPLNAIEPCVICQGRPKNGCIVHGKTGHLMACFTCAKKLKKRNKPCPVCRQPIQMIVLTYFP

With `CCN1/C(=C/C=C/c2sc3ccccc3[n+]2CC)Sc2ccccc21` the IC50 [1] was 74.8 µM (active), the IC50 (Exodeoxyribonuclease V) was 80.9 µM (inactive) and the IC50 (Nonstructural protein 1) was 9.73 µM (active). The IC50 [2] was 0.00898 µM (active), the IC50 [3] was 0.0148 µM (active) and the EC50 [4] was 2.54 µM (active). The AC50 [5] was 0.522 µM (active), the IC50 [6] was 0.172 µM (active) and the IC50 [7] was 1.55 µM (active). The IC50 [8] was > 10 µM (inactive), the IC50 [9] was 0.00957 µM (active) and the IC50 [10] was 99.5 µM (inactive). For the same compound, the IC50 [11] was 0.562 µM (active), the IC50 [12] was 0.00838 µM (active) and the IC50 [13] was 8.51 µM (inactive). The IC50 [14] was 0.00875 µM (active), the IC50 [15] was 0.0172 µM (active) and the EC50 [16] was 11.1 µM (active). For the same compound, the IC50 [17] was > 100 µM (inactive), the EC50 (Streptococcus) was 3 µM (active) and the IC50 [18] was 20.8 µM (active).
With `COCc1cc(O)nc(Nc2nc3ccc(C)cc3o2)n1` the IC50 (Nonstructural protein 1) was 16.1 µM (active), the IC50 [19] was > 20 µM (inactive) and the EC50 [20] was 0.56 µM (active). For the same compound, the EC50 [21] was 11.1 µM (active), the IC50 [22] was > 32 µM and the EC50 (Beta-galactosidase [23]) was > 31.5 µM (inactive). The EC50 [4] was 2.11 µM (active), the EC50 (Beta-galactosidase [24]) was > 40 µM (inactive) and the IC50 [25] was > 32 µM (inactive). For the same compound, the IC50 [26] was 6.83 µM (active), the EC50 [27] was 4.89 µM (active) and the AC50 [28] was 103 µM (active). The IC50 [29] was 7.12 µM (active), the EC50 (Mu-type opioid receptor) was > 32 µM (inactive) and the EC50 (Streptococcus) was 7.89 µM (active). The EC50 [30] was 1.87 µM (active) and the EC50 [31] was > 32 µM (inactive).
